Data published in PubChem BioAssay (NCI).
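How tested: cells in 96-well plates exposed to compound for 48 hours at five concentrations. The concentration for 50% growth inhibition is given as GI50. TGI is the concentration that stops growth completely.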

Columns and labels:
Experiment in all cases: NCI-60 cell line screen, 48 h
CCRF-CEM leukemia = tested on: CCRF-CEM leukemia
HCC-2998 colon = tested on: HCC-2998 colon
HOP-92 NSCLC = tested on: HOP-92 NSCLC
MOLT-4 leukemia = tested on: MOLT-4 leukemia
OVCAR-3 ovarian = tested on: OVCAR-3 ovarian
OVCAR-5 ovarian = tested on: OVCAR-5 ovarian
SF-539 CNS = tested on: SF-539 CNS
SK-MEL-2 melanoma = tested on: SK-MEL-2 melanoma
SK-OV-3 ovarian = tested on: SK-OV-3 ovarian
U251 CNS = tested on: U251 CNS

Row | SMILES | TGI (CCRF-CEM leukemia) | TGI (HCC-2998 colon) | TGI (HOP-92 NSCLC) | TGI (MOLT-4 leukemia) | TGI (OVCAR-3 ovarian) | TGI (OVCAR-5 ovarian) | TGI (SF-539 CNS) | TGI (SK-MEL-2 melanoma) | TGI (SK-OV-3 ovarian) | TGI (U251 CNS) | GI50 (CCRF-CEM leukemia) | GI50 (HCC-2998 colon) | GI50 (HOP-92 NSCLC) | GI50 (MOLT-4 leukemia) | GI50 (OVCAR-3 ovarian) | GI50 (OVCAR-5 ovarian) | GI50 (SF-539 CNS) | GI50 (SK-MEL-2 melanoma) | GI50 (SK-OV-3 ovarian) | GI50 (U251 CNS)
1 | COC(=O)C(Cc1nc2ccccc2[nH]c1=O)C(=O)C(=O)Nc1ccc(OC)cc1[N+](=O)[O-] (centres undefined) | > 100 µM | > 100 µM | > 100 µM | > 100 µM | > 100 µM | > 100 µM | > 100 µM | > 100 µM | > 100 µM | > 100 µM | – | – | – | – | – | – | – | – | – | –
2 | CC([O-])C(=O)[O-].NCC1CCC1CN.[Pt+4] (centres undefined) | > 10 µM | > 10 µM | > 10 µM | > 10 µM | > 10 µM | > 10 µM | > 10 µM | > 10 µM | > 10 µM | > 10 µM | 4.39 µM | > 10 µM | > 10 µM | 8.71 µM | > 10 µM | > 10 µM | > 10 µM | > 10 µM | > 10 µM | > 10 µM
3 | O=C1OC2C(O)C(=O)OC2C1O (centres undefined) | > 100 µM | > 100 µM | > 100 µM | > 100 µM | > 100 µM | > 100 µM | > 100 µM | > 100 µM | > 100 µM | > 100 µM | – | – | – | – | – | – | – | – | – | –
4 | CSc1ccc2c(cc1=O)[C@@H](NC(=O)c1ccc(F)cc1)CCc1cc(O)c(O)c(O)c1-2 | > 100 µM | > 100 µM | > 100 µM | > 100 µM | > 100 µM | > 100 µM | > 100 µM | > 100 µM | > 100 µM | > 100 µM | – | – | – | – | – | – | – | – | – | –
5 | CCC/C(=N\NC(=O)c1cc2ccccc2cc1O)C(CC)C(=O)CCC(=O)N(Cc1ccccc1)Cc1ccccc1 (centres undefined) | 41.7 µM | > 100 µM | > 100 µM | > 100 µM | > 100 µM | > 100 µM | > 100 µM | 77.8 µM | > 100 µM | > 100 µM | – | – | – | – | – | – | – | – | – | –
6 | CCCN1CCN(c2ccc3nc(-c4ccc5nc(-c6ccc(OCC)c(OCC)c6)[nH]c5c4)[nH]c3c2)CC1 | 3.07 µM | 1.16 µM | 5.5 µM | 3.34 µM | 0.622 µM | 4.32 µM | 2.05 µM | 2.01 µM | 7.54 µM | 1.55 µM | 0.394 µM | 0.533 µM | 1 µM | 0.471 µM | 0.258 µM | 1.67 µM | 0.724 µM | 0.508 µM | 1.6 µM | 0.398 µM
7 | N=c1ccn2c(n1)O[C@@H]1[C@@H](O)[C@H](CO)O[C@@H]12 | > 100 µM | > 100 µM | > 100 µM | > 100 µM | > 100 µM | > 100 µM | > 100 µM | > 100 µM | > 100 µM | > 100 µM | 0.0773 µM | 21.2 µM | 9.94 µM | 0.161 µM | – | 49.3 µM | 63.9 µM | 15.8 µM | 2.85 µM | 6.89 µM
8 | O=C(CN1CCN(c2ccc(Cl)cc2)CC1)N1CCN(c2nnc(-c3ccccc3)c(-c3ccccc3)n2)CC1 | > 100 µM | > 100 µM | > 100 µM | > 100 µM | > 100 µM | > 100 µM | > 100 µM | > 100 µM | > 100 µM | > 100 µM | 21.6 µM | 9.29 µM | 6.68 µM | 2.41 µM | 8.38 µM | > 100 µM | 7.65 µM | > 100 µM | 75.7 µM | 8.02 µM
9 | C=C1C(=O)OC2/C=C(\C)C3OC3/C=C(/C(=O)OC)C(OC(C)=O)C(OC(=O)C(C)(O)C(C)OC(C)=O)C12 (centres undefined) | 3.04 µM | 14.4 µM | 4.1 µM | 3.68 µM | 13.9 µM | 10.7 µM | 5.43 µM | 20.2 µM | 33 µM | 10.3 µM | – | – | – | – | – | – | – | – | – | –
10 | CC1=C(C(=O)Nc2ccccc2C)C(c2ccc(C3C(C(=O)Nc4ccccc4C)=CNC=C3C(=O)Nc3ccccc3C)cc2)C(C(=O)Nc2ccccc2C)=C(C)N1 | > 29 µM | 31.8 µM | 46.4 µM | > 40.3 µM | 39.5 µM | 44.4 µM | 19.6 µM | 31.6 µM | > 58.2 µM | 24.7 µM | – | – | – | – | – | – | – | – | – | –
11 | COc1ccc(-c2nocc2-c2cc(OC)c(OC)c(OC)c2)cc1 | > 100 µM | 28 µM | 59 µM | > 100 µM | 0.474 µM | > 100 µM | 20.7 µM | 69.2 µM | > 82.8 µM | > 81.1 µM | 0.189 µM | 0.358 µM | 2.02 µM | 0.3 µM | 0.0364 µM | 1.38 µM | 0.132 µM | 0.0664 µM | 0.142 µM | 0.0793 µM
12 | CCN1CCN(C(=O)[C@]23CCC(C)(C)C[C@@H]2C2=CC[C@@H]4[C@@]5(C)C/C(=C/c6cccnc6)C(=O)C(C)(C)[C@@H]5CC[C@@]4(C)[C@]2(C)CC3)CC1 | 9.02 µM | 3.12 µM | 3.26 µM | 5.2 µM | 2.95 µM | 3.35 µM | 3 µM | 3.96 µM | 16.8 µM | 3.11 µM | 2.1 µM | 1.58 µM | 1.06 µM | 1.03 µM | 1.51 µM | 1.56 µM | 1.62 µM | 1.93 µM | 4.19 µM | 1.58 µM
13 | Cc1ccccc1/C=C1\CN(C(=O)OC(C)(C)C)C/C(=C\c2ccccc2C)C1=O | 12.6 µM | 3.78 µM | 5.75 µM | 21.8 µM | 3.65 µM | 4.86 µM | 3.64 µM | 26.5 µM | 70.5 µM | 3.95 µM | 2.9 µM | 1.94 µM | 1.9 µM | 2.9 µM | 1.85 µM | 2.16 µM | 1.94 µM | 10.1 µM | 5.77 µM | 1.82 µM
14 | CC(C)[C@@H]1CC[C@@H]2[C@@H]1[C@H](OC(=O)/C=C/c1ccccc1)[C@]1(C(C)C)C[C@@H](OC(=O)CO)[C@@]2(C)O1 | 15.2 µM | 11.7 µM | 8.88 µM | 14.9 µM | 11.9 µM | 10.2 µM | 10.2 µM | 17.6 µM | 32.5 µM | 10.6 µM | 6.9 µM | 6.35 µM | 4.34 µM | 6.94 µM | 6.69 µM | 5.15 µM | 5.25 µM | 7.71 µM | 10.3 µM | 5.54 µM
15 | CC(C)CC(=O)NS(=O)(=O)c1ccccc1 | > 100 µM | > 100 µM | > 100 µM | > 100 µM | > 100 µM | > 100 µM | > 100 µM | > 100 µM | > 100 µM | > 100 µM | – | – | – | – | – | – | – | – | – | –
